This passage reports Ki and Kb results from patent US5565566A (Discovery Therapeutics, Inc., priority 1995, dated 1996).

Structures can show the parent of a compound that is named as a salt. Where two headings read alike, the source gives them in different places. A value given as a limit tells only on which side of the number the result lay.

The target of test [1] is T1, rat cortical A1 receptors (Rattus norvegicus, UniProt P25099).
T1 construct: rat cortical membranes were the receptor source; from tissue; host or cells: rat cerebral cortex (male Sprague Dawley) membranes
T1 sequence (P25099 1-326): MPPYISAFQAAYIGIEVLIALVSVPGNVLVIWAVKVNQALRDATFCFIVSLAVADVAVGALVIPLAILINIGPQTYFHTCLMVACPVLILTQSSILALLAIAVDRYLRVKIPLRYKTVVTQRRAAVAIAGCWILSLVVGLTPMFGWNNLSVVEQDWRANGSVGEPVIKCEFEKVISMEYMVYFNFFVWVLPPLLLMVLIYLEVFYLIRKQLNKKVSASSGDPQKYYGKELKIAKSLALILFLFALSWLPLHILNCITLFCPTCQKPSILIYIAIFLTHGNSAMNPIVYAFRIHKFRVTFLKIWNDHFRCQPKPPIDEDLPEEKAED
Description: displacement of [3H]-CHA from rat cortical A1 receptors. It is filed as binding. As for the experimental part:
Varying concentrations of test compounds were incubated with the appropriate radioligand and membrane source for 1 hr at room temperature.
Assays were terminated by filtration over Whatman GF/B filters that had been pre-soaked with 0.1% polyethyleneimine using a 24 port Brandell cell havester. The filters were washed three times with 3 ml of ice cold buffer and transfered to plastic scintillation vials to which 4 ml of Beckman Ready protein scintillation cocktail was added. The tubes were shaken and counted in a Beckman 3801 scintillation counter that converted cpm to dpm.
Data were analyzed by utilizing the Ligand, commercial computer program (Munson and Rodbard, 1980).
Male Sprague Dawley rats were killed by decapitation and the brains removed. The cerebral cortices were homogenized in 50 mm Tris; 2mm MgCl2 (pH 7.4), and centrifuged at 40,000×g for 10 minutes. […] The homogenate was centrifuged, washed once, resuspended to a protein concentration of 5-10 mg/ml and frozen at -70° C. until use.
For orientation: Displacement assays read how much labelled ligand stays bound in the presence of the test substance.

Test [2] deals with T2, A2 receptors (Homo sapiens, UniProt P29274).
T2 construct: Human Platelet Membranes; from tissue; host or cells: human platelets (membranes)
T2 sequence (P29274 whole entry): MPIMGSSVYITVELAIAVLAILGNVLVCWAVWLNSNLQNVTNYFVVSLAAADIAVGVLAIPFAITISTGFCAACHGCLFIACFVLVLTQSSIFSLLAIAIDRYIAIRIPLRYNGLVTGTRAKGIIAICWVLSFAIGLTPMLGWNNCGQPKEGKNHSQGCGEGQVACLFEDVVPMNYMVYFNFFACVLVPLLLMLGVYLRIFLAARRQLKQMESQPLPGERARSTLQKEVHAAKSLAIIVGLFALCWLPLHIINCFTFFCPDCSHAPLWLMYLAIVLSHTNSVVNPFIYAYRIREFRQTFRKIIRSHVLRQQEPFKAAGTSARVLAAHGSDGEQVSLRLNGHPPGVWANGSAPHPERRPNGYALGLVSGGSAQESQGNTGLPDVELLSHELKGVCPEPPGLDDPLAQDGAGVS
Description: antagonism of NECA-stimulated adenylate cyclase in human platelet membranes (A). It is filed as biochemical.

Test [3] has as its target T3, A2 receptors (Rattus norvegicus, UniProt P30543).
T3 construct: Rat PC12 Membranes; endogenous in cells; host or cells: PC12
Description: antagonism of NECA-stimulated adenylate cyclase in rat PC12 membranes (B). It is filed as biochemical.

Test [4] concerns the target T4, A1 receptors (Rattus norvegicus, UniProt P25099).
T4 sequence (P25099 1-326): T1 sequence (P25099 1-326)
Briefly: prevention of R-PIA-induced inhibition of adenylate cyclase in rat fat cell membranes (C). Also on record: from tissue. It is filed as biochemical. On the procedure:
(§1) For activity at A1 receptors, compounds were tested as inhibitors of the binding of N^6 -[…]-[3H]-Phenylisopropyladenosine in rat brain membranes and for their ability to prevent R-PIA-induced inhibition of adenylate cyclase in rat fat cell membranes.
(C) Rat Fat Cell Membranes

Test [5] concerns the target T4, A1 receptors. Briefly: inhibition of binding of [3H]-phenylisopropyladenosine in rat brain membranes (D). Also on record: Rat Brain Membranes; from tissue; host or cells: rat brain (membranes). On the procedure:
as §1
(D) Rat Brain Membranes

Setting [6] is: [3H]-CHA, rat cortical A1 receptors, read-out: Rat Cortical Binding Constant Ki.
Setting [7] is: (C) Rat Fat Cell Membranes, A1 Effects, read-out: KB vs PIA INHIBITION (Adenylate Cyclase).
[8] abbreviates: (D) Rat Brain Membranes, A1 Effects, read-out: Ki vs [^3 H] PI (Binding).
The mark [9] stands for this setting: (A) Human Platelet Membranes, A2 Effects.
The mark [10] stands for this setting: (B) Rat PC12 Membranes, A2 Effects.

T3 sequence (P30543 whole entry): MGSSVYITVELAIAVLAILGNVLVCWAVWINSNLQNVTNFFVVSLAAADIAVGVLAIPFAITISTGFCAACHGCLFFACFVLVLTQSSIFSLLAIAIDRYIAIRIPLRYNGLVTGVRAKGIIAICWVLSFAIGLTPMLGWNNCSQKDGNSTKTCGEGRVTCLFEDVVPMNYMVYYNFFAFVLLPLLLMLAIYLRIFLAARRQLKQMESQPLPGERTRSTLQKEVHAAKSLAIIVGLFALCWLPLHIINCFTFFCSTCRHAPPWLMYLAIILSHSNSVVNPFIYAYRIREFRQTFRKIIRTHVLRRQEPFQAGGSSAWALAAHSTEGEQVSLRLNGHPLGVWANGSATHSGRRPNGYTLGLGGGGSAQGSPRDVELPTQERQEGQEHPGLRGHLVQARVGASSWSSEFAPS

In the case of `Cn1cnc2c(N[C@H]3C[C@H]4CC[C@@H]3C4)nc(O)nc21` (relative stereo) [compound 1063, N^6-(Endo-2-norbornyl)-2-oxo-9-MA], the Ki (commonly the dissociation constant of the complex between target and ligand, obtained from inhibition or displacement) in test [1] (setting [6]) was 1.12 µM. On to `CNc1ncnc2c1ncn2C` [N^6 -Methyl-9-MA], for which the Kb on A2 receptors [2] is 150 µM; on A2 receptors [3], 130 µM; at A1 receptors [4], 220 µM. For the same compound, the Ki at A1 receptors [5] was more than 100 µM. Take `Cn1c(C2CCCC2)nc2c(NC3CCCC3)ncnc21` [compound 0965, N^6-cyclopentyl-8-cyclopentyl-9-MA]: the Ki in test [1] (setting [6]) is 0.141 µM. Consider “N^6 -Methylcyclopentyl-9-MA [N^6 -Methylcylopentyl-9-MA]”, for which the Kb on A2 receptors [2] (read-out: KB vs NECA Stimulation (Adenylate Cyclase), (A) Human Platelet Membranes, A2 Effects) is 45 µM; at A2 receptors [3] (read-out: KB vs NECA Stimulation (Adenylate Cyclase), (B) Rat PC12 Membranes, A2 Effects) it was 56 µM; at A1 receptors [4] (setting [7]) it was 9 µM. The inhibitory constant (Ki) on A1 receptors [5] (setting [8]) is 2.5 µM. Take `Cn1cnc2c(N[C@@H]3C[C@H]4CC[C@@H]3C4)ncnc21` (relative stereo) [compound 0978, N^6-(exo-2-norbornyl)-9-MA]: the Ki in test [1] (setting [6]) was determined as 0.43 µM. Consider `Cn1cnc2c(Nc3ccccc3)ncnc21` [N^6 Phenyl-9-MA, N^6 -Phenyl-9-MA], for which the Kb on A2 receptors [2] (setting [9]) was 21 µM; at A2 receptors [3] (setting [10]) it was 107 µM; on A1 receptors [4] (setting [7]) it was 10 µM. The inhibitory constant (Ki) at A1 receptors [5] (setting [8]) was 25 µM. In the case of `Cn1cnc2c(N)ncnc21` [9-Methyladenine (9-MA), 9-Methyladenine, reference compound], the figures for the Kb at A2 receptors [3] and at A1 receptors [4] were 24 µM and 112 µM, respectively. Moreover, the affinity on A1 receptors [5] corresponds to a Ki of 106 µM. Turning to `Cn1cnc2c(NCCc3ccsc3)ncnc21` [N^6-2-(3-Thienylethyl)-9-MA], the Kb was 14 µM at A2 receptors [2] (setting [9]), 25 µM on A2 receptors [3] (setting [10]) and 24 µM at A1 receptors [4] (setting [7]). For the same compound, the Ki at A1 receptors [5] (setting [8]) was determined as 20 µM. For `Cn1c(C2CCCC2)nc2c(N[C@H]3C[C@H]4CC[C@@H]3C4)ncnc21` (relative stereo) [compound 0964, N^6-(endo-2-norbornyl)-8-cyclopentyl-9-MA], in test [1] (setting [6]), the Ki is 0.24 µM.

`Cn1c(C(=O)O)nc2c(N[C@H]3C[C@H]4CC[C@@H]3C4)ncnc21` (relative stereo) [compound 1006, N^6-(endo-2-norbornyl)-8-carboxy-9-MA Sodium Salt]: in test [1] (setting [6]), the inhibition constant (Ki) is more than 10 µM. As for `Cn1cnc2c(NC3CCC3)ncnc21` [N^6-cyclobutyl-0-MA, N^6 -Cyclobutyl-9-Methyl Adenine], the results for the Kb on A2 receptors [2] (setting [9]), at A2 receptors [3] (setting [10]) and on A1 receptors [4] (setting [7]) were 5.5 µM, 23 µM and 0.89 µM, respectively. For the same compound, the inhibition constant (Ki) on A1 receptors [5] (setting [8]) turned out to be 1.2 µM. With `Cn1c(N)nc2c(N[C@H]3C[C@H]4CC[C@@H]3C4)ncnc21` (relative stereo) [compound 1005, N^6-(endo-2-norbornyl)-8-amino-9-MA], in test [1] (setting [6]), the Ki was determined as 0.87 µM. Still for that read-out and setting: the value for `Cn1cnc2c(Nc3cccs3)ncnc21` [compound 0987, N6 2-thienyl-9-MA] was more than 100 µM; that for `Cn1cnc2c(NCCc3ccccc3Cl)ncnc21` [compound 0967, N^6-2(2-chlorophenylethyl)9-MA] was more than 10 µM. With `Cn1c(S)nc2c(N[C@H]3C[C@H]4CC[C@@H]3C4)ncnc21` (relative stereo) [compound 1060, N^6-(endo-2-norbornyl)-8-thio-9-MA], the Ki in test [1] (setting [6]) was 0.37 µM. On the same count and under the same terms, the value for `Cn1c(NC2CCCC2)nc2c(N[C@H]3C[C@H]4CC[C@@H]3C4)ncnc21` (relative stereo) [compound 1064, N^6-(endo-2-norbornyl)-8-cyclopentylamine-9-MA] was 1.9 µM. As to `Cn1cnc2c(NCCc3cccnc3)ncnc21` [N^6-2-(3-Pyridylethyl)-9-MA], the Kb at A2 receptors [2] (setting [9]) was determined as 92 µM; at A2 receptors [3] (setting [10]) it was 117 µM; on A1 receptors [4] (setting [7]), 96 µM. Besides, the inhibitory constant (Ki) at A1 receptors [5] (setting [8]) worked out at 41 µM. Consider `C[C@@H](Nc1ncnc2c1ncn2C)c1ccccc1` [compound 0984, N^6 -R-1-phenyl-1-ethyl-9-MA], for which, in test [1] (setting [6]), the inhibition constant (Ki) is more than 10 µM.

As for `C[C@H](Nc1ncnc2c1ncn2C)c1ccccc1` [compound 0985, N^6 -S-1-phenyl-1-ethyl-9-MA], the inhibition constant (Ki) in test [1] (setting [6]) is more than 100 µM.

Take `Cn1cnc2c(NC3CCCCC3)ncnc21` [N^6 -Cyclohexyl-9-MA]: the Kb was found to be 7.4 µM on A2 receptors [2] (setting [9]), 21 µM at A2 receptors [3] (setting [10]) and 0.65 µM on A1 receptors [4] (setting [7]). On to `Cn1cnc2c(N[C@H]3C[C@H]4CC[C@@H]3C4)nc(Cl)nc21` (relative stereo) [compound 0913, N^6-(endo-2-norbornyl)-2-chloro-9-MA], for which the inhibition constant Ki in test [1] (setting [6]) amounted to 0.105 µM. With `CN(C)CCNc1ncnc2c1ncn2C` [compound 0983, N^6-(2,2-N-dimethylethyl)-9-MA], the inhibitory constant (Ki) in test [1] (setting [6]) is more than 10 µM. Regarding `Cn1c(Br)nc2c(N[C@H]3C[C@H]4CC[C@@H]3C4)ncnc21` (relative stereo) [compound 1003, N^6-(endo-2-norbornyl)-8-bromo-9-MA], the inhibition constant Ki in test [1] (setting [6]) came to 0.013 µM. `CCCC(Nc1ncnc2c1ncn2C)C(=O)O` (stereo not shown) [compound 1004, N^6-1-carboxy-1-butyl-9-MA]: in test [1] (setting [6]), the Ki was more than 100 µM. With `Cn1c(Cl)nc2c(N[C@H]3C[C@H]4CC[C@@H]3C4)ncnc21` (relative stereo) [compound 1061, N^6-(endo-2-norbornyl)-8-chloro-9-MA], the Ki in test [1] (setting [6]) is 0.015 µM.

As to `C[C@@H](Cc1ccccc1)Nc1ncnc2c1ncn2C` [compound 0986, N^6 -S-1-phenyl-2-propyl-9-MA], the Kb at A2 receptors [2] came to 23 µM; at A2 receptors [3] (setting [10]), 74 µM. In addition, the inhibition constant (Ki) is more than 10 µM in test [1] and 10 µM on A1 receptors [5]. As for `Cn1c(S(=O)(=O)O)nc2c(N[C@H]3C[C@H]4CC[C@@H]3C4)ncnc21` (relative stereo) [compound 1062, N^6-(endo-2-norbornyl)-8-sulfonate-9-MA sodium salt], the inhibition constant (Ki) in test [1] (setting [6]) was more than 100 µM.

As to `Cn1cnc2c(NCCc3c[nH]c4ccccc34)ncnc21` [compound 0989, N^6-2-(3-ethylindole)-9-MA], the inhibition constant (Ki) in test [1] (setting [6]) is more than 10 µM.

Take `Cn1c(=O)[nH]c2c(N[C@H]3C[C@H]4CC[C@@H]3C4)ncnc21` (relative stereo) [compound 1001, N^6-(endo-2-norbornyl)-8-oxo-9-MA]: the inhibition constant Ki in test [1] (setting [6]) is approximately 10 µM. As for `Cn1cnc2c(NCC(c3ccccc3)c3ccccc3)ncnc21` [compound 0966, N^6-2,2-diphenylethyl-9-MA], the Ki in test [1] (setting [6]) is more than 10 µM.

Turning to `Cn1cnc2c(NCCN)ncnc21` [compound 0982, N^6-2-Aminoethyl-9-MA], the Ki in test [1] (setting [6]) is more than 10 µM. Consider `OCCOCn1cnc2c(N[C@H]3C[C@H]4CC[C@@H]3C4)ncnc21` (relative stereo) [compound 1059, N^6-(endo-2-norbornyl)-9-[(2-hydroxyethoxy)methyl]adenine], for which the inhibition constant Ki in test [1] (setting [6]) worked out at 0.49 µM.

Regarding `C[C@H](Cc1ccccc1)Nc1ncnc2c1ncn2C` [N^6 R-1-Phenyl-2-propyl-9-MA, N^6 -R-1-Phenyl-2-propyl-9-MA], the Kb was determined as 13 µM at A2 receptors [2] (setting [9]), 25 µM on A2 receptors [3] (setting [10]) and 7.2 µM at A1 receptors [4]. Further, at A1 receptors [5], the inhibition constant Ki was found to be 2.5 µM. Turning to `Cc1cc(Cl)ccc1Nc1ncnc2c1ncn2C` [compound 0988, N6(4-chloro-2-methylphenyl)-9-MA], the Ki in test [1] (setting [6]) was more than 10 µM. Take `Cn1cnc2c(NCc3ccccc3)ncnc21` [N^6-2-Benzyl-9-MA, N^6 -Benzyl-9-MA]: the Kb amounted to 57 µM on A2 receptors [2] (setting [9]), 100 µM at A2 receptors [3] (setting [10]) and 49 µM on A1 receptors [4] (setting [7]). Further, the inhibition constant (Ki) at A1 receptors [5] (setting [8]) was found to be 17 µM.

As to `Cn1cnc2c(Nc3ccccc3F)ncnc21` [N^6-2-Fluorophenyl-9-MA, N^6-2-Fluorophenyl-9-MA], the figures for the Kb on A2 receptors [2] (setting [9]), on A2 receptors [3] (setting [10]) and on A1 receptors [4] (setting [7]) were 11 µM, 29 µM and 17 µM, respectively. Further, at A1 receptors [5] (setting [8]), the inhibition constant (Ki) worked out at 8.5 µM.
